# From patent publication US20250108023A1, “Products for Masking Bitterness” (The Third People's Hospital of Henan Province, priority 2023, published 2025)
# Biological target: T1, sodium ion channel of Trpm5 bitter receptor (Mus musculus, UniProt Q9JJH7)
# T1 construct: Put the removed tongue in a 2 ml EP tube, add 1-1.5 ml of 0.25% trypsin solution; from tissue; host or cells: cells dissociated with trypsin from mouse tongue
# T1 sequence (Q9JJH7 1-1158): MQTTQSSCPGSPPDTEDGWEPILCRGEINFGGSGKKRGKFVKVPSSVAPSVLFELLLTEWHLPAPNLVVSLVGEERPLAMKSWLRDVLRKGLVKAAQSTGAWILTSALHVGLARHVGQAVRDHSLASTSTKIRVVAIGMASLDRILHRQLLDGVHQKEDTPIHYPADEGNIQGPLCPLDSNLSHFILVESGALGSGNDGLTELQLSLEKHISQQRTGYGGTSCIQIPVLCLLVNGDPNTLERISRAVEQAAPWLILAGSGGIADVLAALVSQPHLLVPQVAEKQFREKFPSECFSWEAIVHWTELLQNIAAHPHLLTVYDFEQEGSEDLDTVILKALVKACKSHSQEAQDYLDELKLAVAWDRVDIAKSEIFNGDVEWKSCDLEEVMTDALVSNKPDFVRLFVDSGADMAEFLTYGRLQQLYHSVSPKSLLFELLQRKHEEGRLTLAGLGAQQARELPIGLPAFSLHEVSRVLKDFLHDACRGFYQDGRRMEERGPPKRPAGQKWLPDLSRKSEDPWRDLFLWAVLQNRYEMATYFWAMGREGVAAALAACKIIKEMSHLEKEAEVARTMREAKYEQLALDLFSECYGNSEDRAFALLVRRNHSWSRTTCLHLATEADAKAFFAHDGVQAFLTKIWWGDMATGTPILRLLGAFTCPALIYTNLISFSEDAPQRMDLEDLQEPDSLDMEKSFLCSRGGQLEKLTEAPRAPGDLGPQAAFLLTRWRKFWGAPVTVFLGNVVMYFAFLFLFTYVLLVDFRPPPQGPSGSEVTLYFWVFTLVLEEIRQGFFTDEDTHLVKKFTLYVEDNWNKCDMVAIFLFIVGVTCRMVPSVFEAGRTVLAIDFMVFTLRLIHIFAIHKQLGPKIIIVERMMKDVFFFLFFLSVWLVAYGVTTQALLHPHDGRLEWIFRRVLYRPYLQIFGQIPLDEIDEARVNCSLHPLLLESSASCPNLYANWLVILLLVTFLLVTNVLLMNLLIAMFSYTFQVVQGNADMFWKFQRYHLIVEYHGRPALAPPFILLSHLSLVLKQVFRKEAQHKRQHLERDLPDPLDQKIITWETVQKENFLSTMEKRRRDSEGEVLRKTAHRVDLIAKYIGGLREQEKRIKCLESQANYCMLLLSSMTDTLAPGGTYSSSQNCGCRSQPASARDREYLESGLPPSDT
# Assay: Immunofluorescence experiment of sodium ion channels in mouse tongue cells stimulated with bitter agent
# Type: cell-based, mice
# Settings: for blocking effect on the sodium ion channel (result analysis in words): judged from change of sodium ion fluorescence after bitter drug
# Method: The mouse was killed by dislocation, and the tongue was removed (minimizing tongue bleeding), disinfected with alcohol for 2 minutes (adding sodium citrate for anticoagulation), and washed with D-Hanks solution or rinsed with 10 ml of saline solution drawn by a syringe.
# Take out the centrifuge tube from the constant temperature incubator, shake for 2 minutes, blow the undigested tongue several times with the gun tip, take out the tongue, cover it with the EP tube cap, put it in a centrifuge, centrifuge at 3000 rpm for 3 minutes, discard the supernatant, add cell culture medium (containing 10% inactivated serum), blow and disperse the cells, and place it in a 37° C. constant temperature incubator for 30 min to allow the cells to recover.
# (1) Take out the prepared ENG-2 AM storage solution and warm it to room temperature for use, keeping it away from light. The concentration of the pre-prepared stock solution is 2 mM and it is stored at −18° C. for future use.
# (2) Dilute the ENG-2 AM+DMSO stock solution to a […] working solution using serum-free culture medium.
# (3) Load the probe in a serum-free culture medium containing an appropriate concentration of AM probe.
# Take out the cells from the incubator, centrifuge, and discard the culture medium. Wash the cells once with D-Hanks solution, centrifuge, and discard the culture medium. Add 1 ml of culture medium again, then add 300 ul of sodium ion probe dilution solution, blow and disperse the cells, and incubate the cells at room temperature or 37° C. for 1 hour.
# At the end of incubation, centrifuge at 100 rpm for 2 minutes, discard the supernatant, add 500 ul of cell culture medium without AM probe, blow and disperse the cells, and incubate for 20-60 min to ensure that the cells completely deesterify the AM group.
# (4) Take 10 ul of incubation solution and drop it into the center of the cell counting plate, cover it with a slide, and observe it under a fluorescence microscope.
# (5) Use a low-power microscope to find the cells, open the fluorescence path, detect the fluorescence signal with a fluorescence microscope, change to a high-power microscope, find the appropriate observation cells, observe and take pictures to record the initial signal.
# (2) Experimental drugs: Add 5 ul of the tested drug to one side of the cover glass on the cell counting plate, use absorbent paper to absorb water on the opposite side, let the solution soak the cells, and then use a fluorescence microscope to observe and take 3-5 photos, one every 1-2 minutes; then add 5 ul of the standard bitter drug to one side of the cover glass on the cell counting plate, use absorbent paper to absorb water on the opposite side, let the solution soak the cells, and then use a fluorescence microscope to observe and take 3-5 photos, one every 1-2 minutes.
# (5) Data analysis: Use Image J-Fiji software to analyze the images, compare the average values of the fluorescence pixels, remove the base number and compare them in the table, draw FIGS. 4-6, and use SPSS18.0 to perform chi-square tests to compare the differences between the data groups.
# [1] = Bitterant 60 s (2% metronidazole solution)
# [2] = Bitterant 120 s (2% metronidazole solution)
# [3] = Bitterant 180 s (2% metronidazole solution)
# [4] = Initial (before addition of drug), sodium ion dye ENG-2 AM
# [5] = Bitterant 240 s (2% metronidazole solution)
compound,measurement,setting,value
"NCCCC(=O)O [GABA, 4-aminobutyric acid]",average value of fluorescence brightness,Addition of drugs,27.367
same,"average value of fluorescence brightness, base number removed",Addition of drugs,0.082
same,average value of fluorescence brightness,[1],27.287
same,"average value of fluorescence brightness, base number removed",[1],0.002
same,average value of fluorescence brightness,[2],27.21
same,"average value of fluorescence brightness, base number removed",[2],−0.075
same,average value of fluorescence brightness,[3],27.127
same,"average value of fluorescence brightness, base number removed",[3],−0.158
same,"average value of fluorescence brightness, base number removed",Initial,0
same,average value of fluorescence brightness,[4],27.285
same,blocking effect on the sodium ion channel (result analysis in words),,have poor effects and do not have bitterness masking effect
"CC1CCC(C(C)C)C(O)C1 (stereo not shown) [Menthol, 2-isopropyl-5-methylcyclohexanol]",average value of fluorescence brightness,Addition of drugs,22.118
same,"average value of fluorescence brightness, base number removed",Addition of drugs,−0.435
same,average value of fluorescence brightness,[1],22.04
same,"average value of fluorescence brightness, base number removed",[1],−0.513
same,average value of fluorescence brightness,[2],21.924
same,"average value of fluorescence brightness, base number removed",[2],−0.629
same,average value of fluorescence brightness,[3],21.907
same,"average value of fluorescence brightness, base number removed",[3],−0.646
same,average value of fluorescence brightness,[5],20.562
same,"average value of fluorescence brightness, base number removed",[5],−1.991
same,"average value of fluorescence brightness, base number removed",Initial,0
same,average value of fluorescence brightness,[4],22.553
same,blocking effect on the sodium ion channel (result analysis in words),,can block the sodium ion channel of Trpm5 bitter receptor
Hydroxyvanillic acid,average value of fluorescence brightness,Addition of drugs,28.082
same,"average value of fluorescence brightness, base number removed",Addition of drugs,0.093
same,average value of fluorescence brightness,[1],27.496
same,"average value of fluorescence brightness, base number removed",[1],−0.493
same,average value of fluorescence brightness,[2],27.697
same,"average value of fluorescence brightness, base number removed",[2],−0.292
same,average value of fluorescence brightness,[3],27.919
same,"average value of fluorescence brightness, base number removed",[3],−0.07
same,"average value of fluorescence brightness, base number removed",Initial,0
same,average value of fluorescence brightness,[4],27.989
same,blocking effect on the sodium ion channel (result analysis in words),,have poor effects and do not have bitterness masking effect
"CC1CCC(C(C)C)C(OC(=O)C(C)O)C1 (stereo not shown) [Menthyl lactate, 2-hydroxypropionic acid-5-methyl-2-(1-methylethyl)cyclohexyl ester]",average value of fluorescence brightness,Addition of drugs,28.425
same,"average value of fluorescence brightness, base number removed",Addition of drugs,−0.113
same,average value of fluorescence brightness,[1],28.141
same,"average value of fluorescence brightness, base number removed",[1],−0.397
same,average value of fluorescence brightness,[2],27.831
same,"average value of fluorescence brightness, base number removed",[2],−0.707
same,average value of fluorescence brightness,[3],28.191
same,"average value of fluorescence brightness, base number removed",[3],−0.347
same,"average value of fluorescence brightness, base number removed",Initial,0
same,average value of fluorescence brightness,[4],28.538
same,blocking effect on the sodium ion channel (result analysis in words),,can block the sodium ion channel of Trpm5 bitter receptor
